Patent US20080312435A1, “Imine Compound” (TAISHO PHARMACEUTICAL CO., LTD., priority 2004, published 2008)

| SMILES | melting point |
| --- | --- |
| Cn1cccc/c1=N\C(=O)c1cccc(C(F)(F)F)c1F | 146 to 147 °C |
| Cc1c(C(C)(C)C)s/c(=N\C(=O)c2cccc(Br)c2)n1C | 173 to 175 °C |
| Cc1s/c(=N\C(=O)c2ccccc2Cl)n(CC2CC2)c1C | 125 to 127 °C |
| O=C(/N=c1\c(F)cc(F)cn1CC1CC1)c1cccc(C(F)(F)F)c1F | 69 to 71 °C |
| CC(C)(C)c1nn(CC2CC2)/c(=N/C(=O)c2ccc(F)cc2C(F)(F)F)s1 | 76 to 78 °C |
| COCCn1c(C)c(C(C)(C)C)s/c1=N\C(=O)c1ccc(Cl)cc1F | 68 to 69 °C |
| CC(C)(C)c1nn(CC2CC2)/c(=N/C(=O)c2cc(C(F)(F)F)ccc2F)s1 | 47 to 49 °C |
| COCCn1c(C)c(C)s/c1=N\C(=O)c1cccc(C(F)(F)F)c1 | 64 to 66 °C |
| Cc1ccccc1C(=O)/N=c1\sc2cc(F)ccc2n1CC1CC1 | 143 to 145 °C |
| Cn1c(C(C)(C)C)c/c(=N\C=O)n1CC1CC1 | 122 to 124 °C |
| COc1ccc(C(F)(F)F)cc1C(=O)/N=c1\cc(C(C)(C)C)n(C)n1CC1CC1 | 99 to 101 °C |
| Cc1c(C(C)(C)C)s/c(=N\C(=O)c2cccc(C(F)(F)F)c2)n1CCO | 147 to 149 °C |
| Cc1ccc(F)cc1C(=O)/N=c1\cc(C(C)(C)C)n(C)n1CC1CC1 | 161 to 162 °C |
| CC[C@H](C(=O)/N=c1\sc(C)c(C)n1CC1CC1)c1ccccc1 (racemic) | 108 to 110 °C |
| Cc1c(C(C)(C)C)s/c(=N\C(=O)c2cccc(C(F)(F)F)c2)n1C(C)C | 135 to 137 °C |
| CC(C)(C)c1nn(CC2CC2)/c(=N/C(=O)c2cc(C(F)(F)F)ccc2F)o1 | 61 to 63 °C |
| Cc1c(C(C)C)s/c(=N\C(=O)c2cccc(C(F)(F)F)c2F)n1C | 89 to 91 °C |
| Cc1c(C(C)(C)C)s/c(=N\C(=O)c2ccccc2O)n1CC1CC1 | 178 to 180 °C |
| CCCc1c(C(=O)/N=c2\sc(C(C)(C)C)c(C)n2CC2CC2)cnn1-c1ccccc1 | 104 to 105 °C |
| Cc1c/c(=N\C(=O)c2cccc(C(F)(F)F)c2F)n(CCC2CC2)n1C | 97 to 98 °C |
| Cc1c(C(=O)O)s/c(=N\C(=O)c2cccc(C(F)(F)F)c2)n1CC1CC1 | 291 to 293 °C |
| COc1ccc(C(F)(F)F)cc1C(=O)/N=c1\oc(C(C)C)c(C)n1CC1CC1 | 118 to 120 °C |
| COc1cc(C(=O)/N=c2\sc(C(C)(C)C)c(C)n2CC2CC2)cc(Cl)n1 | 127 to 128 °C |
| O=C(/N=c1\ccccn1CC1CC1)C(F)(F)F | 90 to 91 °C |

| SMILES | melting point |
| --- | --- |
| Cc1ccc(C(F)(F)F)cc1C(=O)/N=c1\sc(C(C)(C)C)nn1CC1CC1 | 63 to 65 °C |
| Cc1c(C(C)(C)C)s/c(=N\C(=O)c2ccccc2)n1CC1CC1 | 106 to 107 °C |
| Cc1c(CC(C)(C)C(C)(C)C)s/c(=N\C(=O)c2cc(C(F)(F)F)ccc2F)n1CC1CC1 | 88 to 89 °C |
| O=C(/N=c1\ccccn1CC1CC1)c1cccc(F)c1C(F)(F)F | 88 to 89 °C |
| Cc1c(C(C)(C)C)s/c(=N\C(=O)c2ccc(F)c(C(F)(F)F)c2)n1CC1CC1 | 123 to 124 °C |
| CN(C)c1cccc(C(=O)/N=c2\sc3ccccc3n2CC2CC2)c1 | 156 to 158 °C |
| Cc1c(C(=O)N(C)C)s/c(=N\C(=O)c2cccc(C(F)(F)F)c2)n1CC1CC1 | 138 to 140 °C |
| Cn1c(C(C)(C)C)c/c(=N\C(=S)Nc2ccc(F)cc2)n1CC1CC1 | 147.5 to 149.5 °C |
| Cn1c(C(C)(C)C)c/c(=N\C(=O)c2cc(Cl)ccc2Cl)n1CC1CC1 | 164 to 165 °C |
| O=C(/N=c1\ccccn1CC1CC1)c1cc(Cl)ccc1Cl | 53.5 to 54.5 °C |
| Cc1cn(C)/c(=N/C(=O)c2cccnc2)s1 | 173 to 174 °C |
| CCc1ccnc(C(=O)/N=c2\sc(C(C)(C)C)c(C)n2CC2CC2)c1 | 104 to 106 °C |
| Cc1c(C(C)C)o/c(=N\C(=O)c2cc(C(F)(F)F)ccc2F)n1CC1CC1 | 76 to 78 °C |
| Cc1c(C(C)(C)C)n(C)n(CC2CC2)/c1=N/C(=O)c1cccc(C(F)(F)F)c1F | 149 to 150 °C |
| Cc1c(C(C)(C)C)s/c(=N\C(=O)c2cccc(N3CCCC3)c2)n1CC1CC1 | 118 to 120 °C |
| CCCn1c(C)c(C(C)(C)C)s/c1=N\C(=O)c1cccc(C(F)(F)F)c1 | 172 to 174 °C |
| Cc1c(C(C)(C)C)s/c(=N\C(=O)c2cccc(N3CCN(C)CC3)c2)n1CC1CC1 | 126 to 128 °C |
| CCOCCn1/c(=N/C(=O)c2cccc(C(F)(F)F)c2F)cc(C)n1C | 136 to 137 °C |
| Cc1c(C(C)(C)C)s/c(=N\C(=O)C(F)(F)C(F)F)n1CC1CC1 | 93 to 94 °C |
| COc1ccc(C(=O)/N=c2\cc(C)cc(C)n2C)c(OC)c1 | 117.5 to 118 °C |
| Cc1ccc(C(=O)/N=c2\cc(C(C)(C)C)n(C)n2CC2CC2)c(Br)c1 | 153 to 154 °C |
| Cc1s/c(=N\C(=O)c2ccc(F)cc2Br)n(CC2CC2)c1C | 144 to 146 °C |
| Cc1s/c(=N\C(=O)c2cccc(C(F)(F)F)c2)n(CC2CC2)c1-c1ccccc1 | 161 to 162 °C |
| Cc1ncccc1C(=O)/N=c1\sc2ccccc2n1CC1CC1 | 181 to 183 °C |

| SMILES | melting point |
| --- | --- |
| CC(C)c1ccccc1C(=O)/N=c1\cc(C(C)(C)C)n(C)n1CC1CC1 | 113 to 114 °C |
| COc1ccc(OC)c(CC(=O)/N=c2\sc(C(C)(C)C)c(C)n2CC2CC2)c1 | 89 to 91 °C |
| COC(=O)c1cccc(C(=O)/N=c2\sc(C(C)(C)C)c(C)n2C)c1 | 192 to 193 °C |
| Cc1c(C(C)(C)C)s/c(=N\C(=O)c2cccnc2OC2C=CC=CC2)n1CC1CC1 (stereo not drawn) | 111 to 114 °C |
| CCC(CC)C(=O)/N=c1\sc(C)c(C)n1CC1CC1 | 67 to 69 °C |
| Cc1ccccc1C(=O)/N=c1\sc(C(C)(C)C)c(C)n1C | 173 to 175 °C |
| CCc1s/c(=N\C(=O)c2cccc(C(F)(F)F)c2F)n(CC)c1C | 115 to 117 °C |
| Cc1c(C(C)(C)C)s/c(=N\C(=O)C2CCC2)n1CC1CC1 | 189 to 191 °C |
| O=C(/N=c1\ccccn1CCc1ccccc1)c1cccc(C(F)(F)F)c1F | 117 to 118 °C |
| Cc1c(C(=O)N2CCCC2)s/c(=N\C(=O)c2cccc(C(F)(F)F)c2)n1CC1CC1 | 125 to 127 °C |
| Cc1c(C(C)(C)C)s/c(=N\C(=O)Cc2cccs2)n1CC1CC1 | 157 to 159 °C |
| Cn1c(C(C)(C)C)c/c(=N\C(=O)c2ccccc2C(F)(F)F)n1CC1CC1 | 83 to 85 °C |
| Cc1c/c(=N\C(=O)c2cccc(C(F)(F)F)c2F)n(CCOC(C)C)n1C | 88 to 90 °C |
| Cc1c(C(C)(C)C)s/c(=N\C(=O)c2ccc(C(=O)O)cc2)n1CC1CC1 | 196 to 197 °C |
| Cc1c(C(C)(C)C)s/c(=N\C(=O)c2cc(C(F)(F)F)ccc2N2CCOCC2)n1CC1CC1 | 86 to 87 °C |
| Cc1s/c(=N\C(=O)c2ccc(F)cc2C(F)(F)F)n(CC2CC2)c1C | 143 to 144 °C |
| Cc1c(C(C)(C)C)s/c(=N\C(=O)c2ccc(Cl)c(C(F)(F)F)c2)n1CC1CC1 | 122 to 124 °C |
| Cc1c(C(C)C)s/c(=N\C(=O)c2cccc(C(F)(F)F)c2)n1CC1CC1 | 89 to 91 °C |
| Cc1c(Br)cccc1C(=O)/N=c1\cc(C(C)(C)C)n(C)n1CC1CC1 | 138 to 139 °C |
| CCN(CC)c1cccc(C(=O)/N=c2\sc(C(C)(C)C)c(C)n2CC2CC2)c1 | 89 to 90 °C |
| Cc1s/c(=N\C(=O)c2cccc(C(F)(F)F)c2F)n(C)c1C | 182 to 183 °C |
| Cc1c(C(C)(C)C)s/c(=N\C(=O)c2cc(C(F)(F)F)ccc2F)n1C | 140 to 142 °C |
| Cc1c(C(C)(C)C)s/c(=N\C(=O)c2cccnc2N2CCCC2)n1CC1CC1 | 97 to 98 °C |
| Cn1c(C(C)(C)C)c/c(=N\C(=O)c2cccc(OC(F)(F)C(F)F)c2)n1CC1CC1 | 110 to 111 °C |

| SMILES | melting point |
| --- | --- |
| Cc1cccc(C(=O)/N=c2\cc(C(C)(C)C)n(C)n2CC2CC2)c1Br | 153 to 155 °C |
| Cc1c(C(C)(C)C)s/c(=N\C(=O)Cc2ccccc2)n1CC1CC1 | 92 to 94 °C |
| Cc1s/c(=N\C(=O)c2cccc(C(F)(F)F)c2)n(C)c1C | 110 to 111 °C |
| O=C(/N=c1\ccc(-c2ccccc2)cn1CC1CC1)c1cccc(C(F)(F)F)c1F | 115 to 116 °C |
| Cc1c(I)cccc1C(=O)/N=c1\cc(C(C)(C)C)n(C)n1CC1CC1 | 138 to 140 °C |
| Cc1c(C(=O)NC(C)C)s/c(=N\C(=O)c2cccc(C(F)(F)F)c2)n1CC1CC1 | 212 to 214 °C |
| CCOC(=O)c1s/c(=N\C(=O)c2cccc(C(F)(F)F)c2)n(CC2CC2)c1C | 115 to 116 °C |
| Cc1s/c(=N\C(=O)c2cc(Cl)ccc2Cl)n(CC2CC2)c1C | 113 to 115 °C |
| Cn1c(C(C)(C)C)c/c(=N\S(=O)(=O)c2cccc(C(F)(F)F)c2)n1CC1CC1 | 121 to 122 °C |
| CCCCn1cccc/c1=N\C(=O)c1cccc(C(F)(F)F)c1F | 51 to 52 °C |
| Cc1c(C(C)(C)C)s/c(=N\C(=O)c2cccc(N3CCCCC3)c2)n1CC1CC1 | 89 to 90 °C |
| Cc1c(C(C)(C)C)s/c(=N\C(=O)c2cccnc2OC(C)C)n1CC1CC1 | 151 to 153 °C |
| CCCNc1ccc(C(F)(F)F)cc1C(=O)/N=c1\sc(C(C)(C)C)c(C)n1CC1CC1 | 131 to 132 °C |
| Cc1ccccc1C(=O)/N=c1/sc2cccc(C)c2n1CC1CC1 | 133 to 134 °C |
| Cc1cn(CC2CC2)/c(=N\C(=O)c2cccnc2)s1 | 115 to 117 °C |
| Cc1c(C(C)(C)C)s/c(=N\C(=O)c2cc(C(F)(F)F)ccc2N2CCC2)n1CC1CC1 | 100 to 102 °C |
| Cc1c(C(C)(C)C)s/c(=N\C(=O)c2ccc(F)c(C#N)c2)n1CC1CC1 | 195 to 197 °C |
| COc1ccncc1C(=O)/N=c1\sc(C(C)(C)C)nn1CC1CC1 | 94 to 95 °C |
| CCn1c(C)c(Cl)s/c1=N\C(=O)c1cccc(C(F)(F)F)c1F | 158 to 160 °C |
| COc1ccc/c(=N\C(=O)c2cccc(C(F)(F)F)c2F)n1CC1CC1 | 126 to 128 °C |
| Cc1c(C(C)(C)C)s/c(=N\C(=O)c2cncc(Br)c2)n1CC1CC1 | 152 to 154 °C |
